Experimental data from patent US20050026982A1, “Composition that consists of alkanedicarboxylic acids and a pharmaceutical active ingredient” (priority 2003, published 2005).
Entries after “also recorded” stand apart in the source; their conditions may differ. Marks after values point to notes of the source that are not given here.

Tested on: croton-oil-inflamed mouse skin
Assay: Croton oil-induced inflammation on the mouse ear (irritative contact dermatitis model), leukocyte infiltration of the skin
Format: in vivo
Settings: metronidazole 0.75%; for Inhibition [%] of the Skin Infiltration of Granulocytes & Monocytes (Myelo-Peroxidase Activity) / Inhibition [%] of the Skin Infiltration of Neutrophilic (Elastase Activity): croton oil dissolving-out on mouse ear, inhibition vs croton oil + vehicle treatment, azelaic acid 20%, methylprednisolone 0.1%, ethanol/isopropyl myristat; for Therapeutic effect in the inflammation model in comparison to the vehicle (peroxidase and elastase activity in the skin): azelaic acid 20% in ethanol/isopropyl myristat
Text: The induction of an inflammatory reaction (irritative contact dermatitis) is a common model for pharmacological evaluation of the anti-inflammatory potential of topically or systemically administered test substances (Trancik and Lowe (1985) Evaluation of Topical Nonsteroidal Anti-Inflammatory Agents, Models in Dermatology, H. Maibach and N. J. Lowe. Basel, Karger: 35-42). It has proven effective, i.a., in the testing of non-steroidal antiphlogistic agents as well as in glucocorticoid steroids and is regarded as the most reproducible in-vivo test for the evaluation of topical anti-inflammatory substances (Lorenzetti (1975) Animal to Clinical Correlation of Topical Anti-Inflammatory Efficacy. Animal Models in Dermatology. H. Maibach. Basel Karger: 212-225).
The application of the phorbol ester croton oil to mouse ears results in an acute, inflammatory reaction with edema and immigration of primarily polymorphonuclear granulocytes that reaches its maximum within 24 hours. In this connection, test substances can be administered either preventively (i.e., before administration of the inflammatory stimuli) or simultaneously with croton oil. The croton oil-induced inflammation on the mouse ear is not only a model of irritative and/or allergic contact dermatitis, but also other skin diseases that are associated with a high inflammation and immigration of granulocytes. These include psoriasis, atopic dermatis, common acne and the inflammatory stage of rosacea.
Rosacea is a disease of unknown etiology that is considered by many authors to be in the acne group and is generated on the latter and can remove the latter over the course of time. The disease is divided into three stages, of which in particular Rosacea II and III are characterized by inflammatory nodules, nodes, and patches. A leukocytic infiltrate is found by histology (Braun-Falco et al. (1995) Dermatologie und Venerologie. Heidelberg, Springer). Because of the inflammatory components of these stages with leukocyte infiltration of the skin, the croton oil model reflects aspects of this disease.
The activity included, i.a., the immigrations of leukocytes, measured as peroxidase activity in the skin, as well as the immigration of neutrophilic granulocytes, measured as elastase activity in the skin (Table 1).

SMILES	Inhibition [%] of the Skin Infiltration of Granulocytes & Monocytes (Myelo-Peroxidase Activity)	Inhibition [%] of the Skin Infiltration of Neutrophilic (Elastase Activity)	Therapeutic effect in the inflammation model in comparison to the vehicle (peroxidase and elastase activity in the skin)
O=C(O)CCCCCCCC(=O)O [Azelaic Acid, azelaic acid]	21 (n.s.)* %	11 (n.s.)* %	did not show such high, therapeutic effects; also recorded: do not show such high, therapeutic effects
C[C@H]1C[C@@H]2[C@H]([C@@H](O)C[C@@]3(C)[C@H]2CC[C@]3(O)C(=O)CO)[C@@]2(C)C=CC(=O)C=C12 [Methylprednisolone]	90 (p < 0.05)* %	95 (p < 0.05)* %	–
Cc1ncc([N+](=O)[O-])n1CCO [Metroidazole, 1-(2-hydroxyethyl)-2-methyl-5-nitroimidazole]	9 (n.s.)* %	18 (n.s.)* %	did not show such high, therapeutic effects; also recorded: do not show such high, therapeutic effects
